According to patent US7709548B2, “Method for manufacturing monosulfonium salt, cationic polymerization initiator, curable composition, and cured product” (San-Apro Limited, priority 2003, dated 2010):

Assay: Storage stability test (viscosity change of mixture with UVR-6110 stored at 80° C.)
Type: physicochemical
Conditions: measured at 25° C.; for Viscosity after storage for 1 week / Viscosity after storage for 2 weeks / Viscosity after storage for 4 weeks / Viscosity after storage for 6 weeks: stored at 80° C.
Experimental: As an acceleration test for storage stability, a mixture of the cationic polymerization initiator solution and a cationic polymerizable compound was evaluated by measuring its change in the viscosity when stored at a temperature of 80° C.
5 parts of a propylene carbonate solution of the cationic polymerization initiators used in each of Test Examples 5 and 9 was added to 100 parts UVR-6110 (the alicyclic epoxy resin, supra), and 200 g of this mixture was put in a 250 mL brown plastic bottle and stored in an 80° C. thermostat.
3 parts of a propylene carbonate solution of the cationic polymerization initiator used in each of Test Examples 12 and 15 were mixed with 100 parts UVR-6110, and 200 g of this mixture taken in a 250 ml brown plastic bottle and stored in an 80° C. thermostat.
The above-mentioned mixture was adjusted to 25° C. in a thermostatic tank that had been adjusted to 25° C., and the viscosity of the mixture was measured at the start of storage and after one, two, four, and six weeks.

[1] = 3 parts initiator solution per 100 parts UVR-6110
[2] = 5 parts initiator solution per 100 parts UVR-6110

Compound	Viscosity after storage, At start [1] [mPa · s]	Viscosity after storage for 1 week [1] [mPa · s]	Viscosity after storage for 2 weeks [1] [mPa · s]	Viscosity after storage for 4 weeks [1] [mPa · s]	Viscosity after storage for 6 weeks [1] [mPa · s]	Viscosity after storage, At start [2] [mPa · s]	Viscosity after storage for 1 week [2] [mPa · s]	Viscosity after storage for 2 weeks [2] [mPa · s]	Viscosity after storage for 4 weeks [2] [mPa · s]	Viscosity after storage for 6 weeks [2] [mPa · s]
(4-phenylthiophenyl)diphenylsulfonium hexafluoroantimonate [Example 8]	470	470	470	510	650	–	–	–	–	–
F[P-](F)(F)(F)(F)F.c1ccc(Sc2ccc([S+](c3ccccc3)c3ccccc3)cc2)cc1 [Example 5, (4-phenylthiophenyl)diphenylsulfonium hexafluorophosphonate]	–	–	–	–	–	480	480	480	500	500
